Compound `Cc1nn(C)c(=O)n1-c1ccccc1COc1ccn(-c2ccc(Cl)cc2)n1` returned a melting point of 107 to 109 °C.

Values taken from patent US7056941B1 (priority 1997, dated 2006).
